Laboratory results from patent US20240115530A1, “ADMINISTRATION OF BAIBA TO INCREASE BENEFIT OF LOSING WEIGHT OF INTERMITTENT FASTING” (NANJING NUTRABUILDING BIO-TECH CO., LTD., priority 2021, published 2024).

Tests used:
Assay type in all cases: in vivo, C57BL/6 male mice
[1] = Body weight reduction in HFD-fed obese mice with or without EODF; settings: 150 mg/kg daily per oral, 8-week treatment, vs same regimen without L-BAIBA
Description: 50 C57BL/6 male mice aged about 8 weeks, are randomly assigned to five study groups (GA, GB1, GB2, GB3, GB4) of ten mice each (two cages, 1 cage, n=5 per condition). Each animal's body weight is measured by a weight scale and recorded.
The total experimental time is 19 weeks, including two periods: an eleven-week induction period and a subsequent eight-week treatment period.
(§1) Each study group consisted of ten animals, and treatment details of the individual study groups are given below: • Group A (GA, NC): Normal mice, maintained on normal diet for 11 weeks, receiving neither EODF nor L-BAIBA treatment. • Group B1 (GB1, HFD): Obese mice, maintained on high fat diet (HFD) for 11 weeks, receiving neither EODF nor L-BAIBA treatment. • Group B2 (GB2, HFD+EODF): Obese mice, maintained on HFD for 11 weeks, receiving only EODF and no L-BAIBA treatment. • Group B3 (GB3, HFD+BAIBA): Obese mice, maintained on HFD for 11 weeks, receiving only L-BAIBA treatment and no EODF. • Group B4 (GB4, HFD+EODF+BAIBA): Obese mice, maintained on HFD for 11 weeks, receiving L-BAIBA treatment and EODF combination.
L-BAIBA was administered daily via per oral route according to a level of 150 mg/kg body weight. […]
Each mouse's body weight is measured weekly during the study at 1200 h. FIG. 1 is the average body weight of mice in all test groups (Body weight were recorded from the beginning of the experiment). […]

[2] = Blood lipid biochemistry (TG, TCHO, LDL, VLDL) in HFD-fed obese mice; settings: 150 mg/kg daily per oral, end of study, with or without EODF, vs same regimen without L-BAIBA
Text: as §1
(§2) L-BAIBA was administered daily via per oral route according to a level of 150 mg/kg body weight. Animals not receiving L-BAIBA were given orally with ultrapure water.
Intermittent fasting model: HFD fed male mice in groups at 8 weeks of age were randomly assigned into either ad libitum, or every-other-day-fasting (EODF) groups on a per cage basis. All cage bedding was changed to paper bedding for the duration of the model. Mice in the EODF group had total deprivation of food and ad libitum access to water from 1200 h-1200 h on alternate days with ad libitum food and water access. EODF cages were changed upon induction of fasting. Ad libitum control mice cages were changed every other day with fresh food provided.
50 C57BL/6 male mice aged about 8 weeks, are randomly assigned to five study groups (GA, GB1, GB2, GB3, GB4) of ten mice each (two cages, 1 cage, n=5 per condition).
The same procedures were conducted as above-discussed Example 1.
At the end of the study, blood was collected from all test groups and a various clinical parameter were determined: triglyceride (TG), total cholesterol (TCHO), low-density lipoprotein (LDL) and very low-density lipoprotein (VLDL). FIG. 2a-2d are the results of TG, TCHO, LDL and VLDL in all test groups, respectively. […] This effect persists for as long as the test protocol is continued.

[3] = Serum insulin and leptin by ELISA in HFD-fed obese mice; settings: 150 mg/kg daily per oral, end of treatment period, with or without EODF, vs same regimen without L-BAIBA
Text: as §1, §2
(§3) Intermittent fasting model: HFD fed male mice in groups at 8 weeks of age were randomly assigned into either ad libitum, or every-other-day-fasting (EODF) groups on a per cage basis. All cage bedding was changed to paper bedding for the duration of the model. […]
Serum levels of insulin and leptin were determined at the end of the treatment period by standard ELISA methods. […]

[4] = Blood glucose and oral glucose tolerance test (OGTT) in HFD-fed obese mice; settings: 150 mg/kg daily per oral, vs same regimen without L-BAIBA
Text: as §1, §2, §3
Glucose levels in blood were measured weekly (week 12-19) on the starting day of every week before the day's EODF and L-BAIBA dosing activities. […]

Structure (SMILES): C[C@@H](CN)C(=O)O [L-BAIBA, L-β-aminoisobutyric acid]
- body weight [1]: greater reduction in body weight
- low-density lipoprotein (LDL) level in blood [2]: lower levels
- total cholesterol (TCHO) level in blood [2]: lower levels
- triglyceride (TG) level in blood [2]: lower levels
- very low-density lipoprotein (VLDL) level in blood [2]: lower levels
- insulin resistance (serum insulin) [3]: improved
- leptin resistance (serum leptin) [3]: improved leptin resistance
- glucose tolerance (OGTT) ([4]; OGTT after the treatment period, with or without EODF): better glucose tolerance
- blood glucose level ([4]; measured weekly week 12-19, with or without EODF): greater reduction in blood glucose level
